Where a SMILES comes first, the peptide text is derived from it. [ ]: non-standard residue; d: D form. The star is where a group is joined. Phe(4-F) = N[C@@H](Cc1ccc(F)cc1)C(=O)O; Cbz = O=C(OCc1ccccc1)*
Columns and labels:
[1] = Cytotoxicity against human MRC5 cells infected with […] inhibition of cell growth; format: toxicity, cell-based
[2] = biological target: Replicase polyprotein 1ab (Severe acute respiratory syndrome coronavirus 2, UniProt P0DTD1); test: Inhibition of SARS-CoV-2 3CL protease by FRET assay
cells = details: Betacoronavirus 1, MRC5, read-out: pEC50 (converted)
Description: Antiviral activity against SARS-CoV-2 OC43 infected in human MRC5 cells assessed as inhibition of bacterial growth

SARS-CoV-2 = test: microbe, parasite or virus in culture; details: Severe acute respiratory syndrome coronavirus 2, Vero, read-out: pEC50 (converted)
Description: Antiviral activity against SARS-CoV-2 infected in african green monkey Vero cells assessed as virus-induced cell death

[3] = biological target: Replicase polyprotein 1ab (Severe acute respiratory syndrome coronavirus 2) (UniProt P0DTD1); test: Binding affinity to SARS-CoV-2 3CL protease assessed as monophasic dissociation rate by measuring half life by jump dilution assay
[4] = Permeability of compound in MDCK cells; format: ADME, cell-based, Canis lupus familiaris; details: dog, read-out: permeability
[5] = biological target: Replicase polyprotein 1ab (Severe acute respiratory syndrome coronavirus 2) (UniProt P0DTD1); test: Binding affinity to SARS-CoV-2 3CL protease assessed as biphasic dissociation rate by measuring half life by jump dilution assay

| Structure (SMILES) | CC50 [1] [nM] | IC50 [2] [nM] | EC50 (cells) [nM] | EC50 (SARS-CoV-2) [nM] | T1/2 [3] [min] | Papp [4] [×10⁻⁶ cm/s] | T1/2 [5] [min] | Ki [2] [nM] |
| --- | --- | --- | --- | --- | --- | --- | --- | --- |
| CC(C)C[C@H](NC(=O)[C@H](Cc1ccc(F)cc1)NC(=O)OCc1ccccc1)C(=O)NC(C=O)Cc1cncs1 (mixture of isomers) | 2000 | > 1000 | > 50100 |  |  |  |  |  |
| CC(C)C[C@H](NC(=O)[C@H](Cc1ccc(F)cc1)NC(=O)OCc1ccccc1)C(=O)NC(C=O)CC(F)(F)F (mixture of isomers) | 1260 | > 1000 | > 1260 | 631 |  |  |  |  |
| CC(C)C[C@H](NC(=O)[C@H](Cc1ccc(F)cc1)NC(=O)OCc1ccccc1)C(=O)NC(CC1CCCO1)C(=O)C(=O)NC(C)C (mixture of isomers) |  | 200 |  |  | 12 |  |  |  |
| CC(C)C[C@H](NC(=O)[C@H](Cc1ccc(F)cc1)NC(=O)OCc1ccccc1)C(=O)NC(C=O)C[C@@H]1CCNC1=O (mixture of isomers) | > 50100 | 0.398 | 3160 | 1000 |  | 1.62 | 840 |  |
| CC(C)C[C@H](NC(=O)[C@H](Cc1ccc(F)cc1)NC(=O)OCc1ccccc1)C(=O)NC(C=O)Cc1ccncc1 (mixture of isomers) | 5010 | > 1000 | > 5010 | 631 |  |  |  |  |
| CC(C)C[C@H](NC(=O)[C@H](Cc1ccc(F)cc1)NC(=O)OCc1ccccc1)C(=O)NC(C=O)CCF (mixture of isomers) | 2000 | 631 | > 50100 | 1000 | < 12 |  |  |  |
| CC(C)C[C@H](NC(=O)[C@H](Cc1ccc(F)cc1)NC(=O)OCc1ccccc1)C(=O)NC(C=O)Cc1c[nH]cn1 (mixture of isomers) | > 50100 | 15.8 | 25100 | 3980 | < 12 |  |  |  |
| CC(C)C[C@H](NC(=O)[C@H](Cc1ccc(F)cc1)NC(=O)OCc1ccccc1)C(=O)N[C@H](/C=C1\CCOC1=O)C[C@@H]1CCCO1 |  | 39.8 |  | 15800 |  |  | 660 |  |
| CC(C)C[C@H](NC(=O)[C@H](Cc1ccc(F)cc1)NC(=O)OCc1ccccc1)C(=O)NC(C=O)Cc1cccc(F)c1 (mixture of isomers) | 794 | 631 | 794 | 2510 | < 12 |  |  |  |
| CC(C)C[C@H](NC(=O)[C@H](Cc1ccc(F)cc1)NC(=O)OCc1ccccc1)C(=O)N[C@@H](/C=C1\CCOC1=O)C[C@H]1CCCO1 |  | > 1000 |  |  |  |  |  |  |
| CC(C)C[C@H](NC(=O)[C@H](Cc1ccc(F)cc1)NC(=O)OCc1ccccc1)C(=O)N[C@H](C=O)CC[S+](C)[O-] (mixture of isomers) | > 50100 | 7.94 | > 50100 | 7940 |  |  | 660 |  |
| CC(C)C[C@H](NC(=O)[C@H](Cc1ccc(F)cc1)NC(=O)OCc1ccccc1)C(=O)NC(C=O)Cc1ccc(F)cc1 (mixture of isomers) | 1260 | 794 | > 1260 | 2000 | < 12 |  |  |  |
| CC(C)C[C@H](NC(=O)[C@H](Cc1ccc(F)cc1)NC(=O)OCc1ccccc1)C(=O)NC(C=O)CC1CCCO1 (mixture of isomers) | 10000 | 1.26 | 316 | 2510 |  | 9.56 | 660 |  |
| CC(C)C[C@H](NC(=O)[C@H](Cc1ccc(F)cc1)NC(=O)OCc1ccccc1)C(=O)NC(/C=C1\CCOC1=O)CC1CCCO1 (mixture of isomers) |  | 158 |  |  | 18 |  |  |  |
| CC(C)C[C@H](NC(=O)[C@H](Cc1ccc(F)cc1)NC(=O)OCc1ccccc1)C(=O)NC(C=O)Cc1ccco1 (mixture of isomers) |  | 126 |  | 5010 | < 12 |  |  |  |
| CC(C)C[C@H](NC(=O)[C@H](Cc1ccc(F)cc1)NC(=O)OCc1ccccc1)C(=O)NC(C=O)Cc1ccccn1 (mixture of isomers) | 10000 | 12.6 | 1580 |  | 18 |  |  |  |
| CC(C)C[C@H](NC(=O)[C@H](Cc1ccc(F)cc1)NC(=O)OCc1ccccc1)C(=O)NC(C=O)CC(F)F (mixture of isomers) | 1580 | 1000 | > 1580 | 1000 | < 12 |  |  |  |
| CC(C)C[C@H](NC(=O)[C@H](Cc1ccc(F)cc1)NC(=O)OCc1ccccc1)C(=O)N[C@H](/C=C1\CCOC1=O)C[C@@H]1CCNC1=O |  | 1.58 |  |  |  |  | 468 |  |
| CC(C)C[C@H](NC(=O)[C@H](Cc1ccc(F)cc1)NC(=O)OCc1ccccc1)C(=O)NC(C=O)Cc1cccnc1 (mixture of isomers) | 10000 | > 1000 | > 10000 | 2000 |  |  |  |  |
| CC(C)C[C@H](NC(=O)[C@H](Cc1ccc(F)cc1)NC(=O)OCc1ccccc1)C(=O)NC(C=O)CC1CCCC1 (mixture of isomers) | 10000 | 79.4 | 1000 |  | < 12 |  |  |  |
| CC(C)C[C@H](NC(=O)[C@H](Cc1ccc(F)cc1)NC(=O)OCc1ccccc1)C(=O)NC(C=O)Cc1ccccc1F (mixture of isomers) | 1260 | 3.16 | 398 | 1580 |  | 5.27 | 414 |  |
| CC(C)C[C@H](NC(=O)[C@H](Cc1ccc(F)cc1)NC(=O)OCc1ccccc1)C(=O)N[C@H](/C=C1\CCOC1=O)C[C@H]1CCCO1 |  | 126 |  | 15800 | 12 |  |  |  |
| CC(C)C[C@H](NC(=O)[C@H](Cc1ccc(F)cc1)NC(=O)OCc1ccccc1)C(=O)N[C@@H](C[C@@H]1CCNC1=O)C(=O)C(=O)NC(C)C |  | 5.01 |  |  | 18 |  |  | 5.01 |
| CC(C)C[C@H](NC(=O)[C@H](Cc1ccc(F)cc1)NC(=O)OCc1ccccc1)C(=O)N[C@@H](/C=C1\CCOC1=O)C[C@@H]1CCCO1 |  | > 1000 |  |  |  |  |  |  |
| COCCC(C=O)NC(=O)[C@H](CC(C)C)NC(=O)[C@H](Cc1ccc(F)cc1)NC(=O)OCc1ccccc1 (mixture of isomers) | 10000 | 31.6 | 1260 | 1580 | < 12 |  |  |  |
| CSCC[C@@H](C=O)NC(=O)[C@H](CC(C)C)NC(=O)[C@H](Cc1ccc(F)cc1)NC(=O)OCc1ccccc1 (Cbz-[Phe(4-F)]-Leu-Met-aldehyde) | 3980 | 6.31 | 1000 | 1260 | < 12 |  |  |  |
| CC(C)C[C@H](NC(=O)[C@H](Cc1ccc(F)cc1)NC(=O)OCc1ccccc1)C(=O)NC(C=O)CC1CCCCO1 (mixture of isomers) | > 50100 | 39.8 |  | 2000 | 18 |  |  |  |
